These results are taken from US20220125791A1, “NOVEL DEVICES” (INTRA-CELLULAR THERAPIES, INC., priority 2019, published 2022).

A short description of the data set: Compound 1 in plasma and ocular tissue following topical administration. The following applies: for AUC(0-t): male, New Zealand White, rabbit, topical or ocular, topical administration, 5% (2-Hydroxypropyl)-β-cyclodextrin in PBS pH 7.4, LC-MS/MS. It is filed as in vivo, male hypertensive New Zealand White Rabbit. As to the method: The goal of this study was to determine the presence/absence of Compound 1 in male hypertensive New Zealand White Rabbit plasma and ocular tissue following a topical administration. For the study, Compound 1 was formulated with 5% (2-Hydroxypropyl)-β-cyclodextrin in phosphate-buffered saline pH 7.4 at 60 μg/eye. Plasma, Cornea, Conjunctiva, Aqueous Humor (AH), and Iris Ciliary Body (ICB) samples were collected for analysis of the concentrations of Compound 1 using LC-MS/MS methods.

The structures appear in SMILES notation. Like-named read-outs stand apart in the source and are kept apart here.

As to `CN1C(=O)c2c(nn(Cc3ccc(-c4ccccn4)cc3)c2Nc2ccccc2)N2C1=N[C@@H]1CCC[C@@H]12` [Compound 1], the AUC(0-t) (60 μg/eye, aqueous humor, read-out: AUC0-24hr in the aqueous humor) was determined as 866 ng·h/mL and the AUC(0-t) (60 μg/eye, plasma, read-out: AUC0-24hr in the plasma) stood at 46.3 ng·h/mL. For the same molecule, the “availability in ocular tissue” value (ocular tissue upon topical administration, 60 μg/eye (FIG. 1)) was “rapid availability”. In addition, the presence in plasma entry (plasma, 1 hour after topical administration, 60 μg/eye) is “present”.
